# Data from patent US10696615B2, “Prenylated hydroxystilbenes” (The University of Sydney, priority 2011, dated 2020).
# Columns and labels:
# HL-60 (TB) = experiment: NCI in vitro cancer screen, Leukemia; assay type: cell-based, human; conditions: HL-60 (TB)
# MOLT-4 = experiment: NCI in vitro cancer screen, Leukemia; assay type: cell-based, human; conditions: MOLT-4
# RPMI-8226 = experiment: NCI in vitro cancer screen, Leukemia; assay type: cell-based, human; conditions: RPMI-8226
# A549/ATCC = experiment: NCI in vitro cancer screen, Non-Small Cell Lung Cancer; assay type: cell-based, human
# EKVX = experiment: as above; assay type: cell-based, human
# HOP-92 = experiment: as above; assay type: cell-based, human; conditions: HOP-92
# NCI-H322M = experiment: as above; assay type: cell-based, human
# NCI-H522 = experiment: as above; assay type: cell-based, human; conditions: NCI-H522
# COLO 205 = experiment: NCI in vitro cancer screen, Colon Cancer; assay type: cell-based, human; conditions: COLO 205
# HCT-15 = experiment: NCI in vitro cancer screen, Colon Cancer; assay type: cell-based, human; conditions: HCT-15
# HT29 = experiment: NCI in vitro cancer screen, Colon Cancer; assay type: cell-based, human; conditions: HT29
# KM12 = experiment: NCI in vitro cancer screen, Colon Cancer; assay type: cell-based, human; conditions: KM12
# SF-268 = experiment: NCI in vitro cancer screen, CNS Cancer; assay type: cell-based, human; conditions: SF-268
# SF-539 = experiment: NCI in vitro cancer screen, CNS Cancer; assay type: cell-based; conditions: SF-539
# SNB-75 = experiment: NCI in vitro cancer screen, CNS Cancer; assay type: cell-based, human; conditions: SNB-75
# LOX IMVI = experiment: NCI in vitro cancer screen, Melanoma; assay type: cell-based, human
# M14 = experiment: NCI in vitro cancer screen, Melanoma; assay type: cell-based, human; conditions: M14
# SK-MEL-2 = experiment: NCI in vitro cancer screen, Melanoma; assay type: cell-based, human; conditions: SK-MEL-2
# SK-MEL-28 = experiment: NCI in vitro cancer screen, Melanoma; assay type: cell-based, human; conditions: SK-MEL-28
# UACC-257 = experiment: NCI in vitro cancer screen, Melanoma; assay type: cell-based, human; conditions: UACC-257
# OVCAR-4 = experiment: NCI in vitro cancer screen, Ovarian Cancer; assay type: cell-based, human; conditions: OVCAR-4
# OVCAR-5 = experiment: NCI in vitro cancer screen, Ovarian Cancer; assay type: cell-based, human; conditions: OVCAR-5
# OVCAR-8 = experiment: NCI in vitro cancer screen, Ovarian Cancer; assay type: cell-based, human; conditions: OVCAR-8
# A498 = experiment: NCI in vitro cancer screen, Renal Cancer; assay type: cell-based, human; conditions: A498
# RXF-393 = experiment: NCI in vitro cancer screen, Renal Cancer; assay type: cell-based, human; conditions: RXF-393
# SN12C = experiment: NCI in vitro cancer screen, Renal Cancer; assay type: cell-based, human
# UO-31 = experiment: NCI in vitro cancer screen, Renal Cancer; assay type: cell-based, human; conditions: UO-31
# PC-3 = experiment: NCI in vitro cancer screen, Prostate Cancer; assay type: cell-based, human; conditions: PC-3
# MCF7 = experiment: NCI in vitro cancer screen, Breast Cancer; assay type: cell-based, human; conditions: MCF7
# [1] = tested on: MDA-MB-231 (MDA-MB-231/ATCC); experiment: NCI in vitro cancer screen, Breast Cancer; assay type: cell-based, human; conditions: MDA-MB-231
# T-47D = experiment: NCI in vitro cancer screen, Breast Cancer; assay type: cell-based, human
# [2] = Homo sapiens, read-out: LC50 (the source's name)
smiles,measurement,setting,value
"COc1cc(/C=C/c2cc(O)c(CC=C(C)C)c(O)c2)ccc1O [USYDS13, (E)-4-(3-methyl-2-buten-1-yl)-3,4′,5-trihydroxy-3′-methoxystilbene]",TGI,HL-60 (TB),17.1 µM
same,GI50,HL-60 (TB); Homo sapiens,2.55 µM
same,CC50,HL-60 (TB); [2],> 100 µM
same,GI50,MOLT-4; Homo sapiens,2.95 µM
same,CC50,MOLT-4; [2],> 100 µM
same,TGI,MOLT-4,13.7 µM
same,GI50,RPMI-8226; Homo sapiens,9.05 µM
same,CC50,RPMI-8226; [2],> 100 µM
same,TGI,RPMI-8226,51.6 µM
same,TGI,A549/ATCC,20.4 µM
same,GI50,A549/ATCC; Homo sapiens,4.01 µM
same,CC50,A549/ATCC; [2],> 100 µM
same,TGI,EKVX,54.6 µM
same,GI50,EKVX; Homo sapiens,12.8 µM
same,CC50,EKVX; [2],> 100 µM
same,TGI,HOP-92,30.5 µM
same,GI50,HOP-92; Homo sapiens,5.96 µM
same,CC50,HOP-92; [2],> 100 µM
same,TGI,NCI-H322M,28.5 µM
same,GI50,NCI-H322M; Homo sapiens,5.9 µM
same,LC50 (50% lethal concentration),NCI-H322M; Homo sapiens,> 100 µM
same,GI50,NCI-H522; Homo sapiens,2.13 µM
same,CC50,NCI-H522; [2],25.6 µM
same,TGI,NCI-H522,59.8 µM
same,TGI,COLO 205,28.9 µM
same,GI50,COLO 205; Homo sapiens,15.6 µM
same,CC50,COLO 205; [2],53.8 µM
same,TGI,HCT-15,20.5 µM
same,GI50,HCT-15; Homo sapiens,4.25 µM
same,CC50,HCT-15; [2],84.5 µM
same,TGI,HT29,36.9 µM
same,GI50,"HT29; Homo sapiens, HT-29",17.8 µM
same,CC50,"HT29; Homo sapiens, HT-29, read-out: LC50 (the source's name)",76.8 µM
same,GI50,KM12; Homo sapiens,3.15 µM
same,CC50,KM12; [2],49 µM
same,TGI,KM12,16.1 µM
same,GI50,SF-268; Homo sapiens,6.17 µM
same,CC50,SF-268; [2],> 100 µM
same,TGI,SF-268,32.9 µM
same,GI50,SF-539; Homo sapiens,7.32 µM
same,CC50,SF-539; [2],> 100 µM
same,TGI,SF-539,29.9 µM
same,GI50,SNB-75; Homo sapiens,5.47 µM
same,CC50,SNB-75; [2],> 100 µM
same,TGI,SNB-75,36.6 µM
same,TGI,LOX IMVI,20.2 µM
same,GI50,LOX IMVI; Homo sapiens,4.48 µM
same,CC50,LOX IMVI; [2],80 µM
same,GI50,M14; Homo sapiens,4.92 µM
same,CC50,M14; [2],51.6 µM
same,TGI,M14,18.5 µM
same,GI50,SK-MEL-2; Homo sapiens,3.09 µM
same,LC50,SK-MEL-2; Homo sapiens,40.2 µM
same,TGI,SK-MEL-2,9.37 µM
same,GI50,SK-MEL-28; Homo sapiens,5.64 µM
same,LC50,SK-MEL-28; Homo sapiens,70.5 µM
same,TGI,SK-MEL-28,22.5 µM
same,GI50,UACC-257; Homo sapiens,5.35 µM
same,CC50,UACC-257; [2],44 µM
same,TGI,UACC-257,18.1 µM
same,GI50,OVCAR-4; Homo sapiens,9.68 µM
same,CC50,OVCAR-4; [2],> 100 µM
same,TGI,OVCAR-4,74.8 µM
same,GI50,OVCAR-5; Homo sapiens,13.9 µM
same,CC50,OVCAR-5; [2],> 100 µM
same,TGI,OVCAR-5,79.3 µM
same,GI50,OVCAR-8; Homo sapiens,5.48 µM
same,CC50,OVCAR-8; [2],> 100 µM
same,TGI,OVCAR-8,59.8 µM
same,TGI,A498,21.0 µM
same,GI50,A498; Homo sapiens,3.88 µM
same,CC50,A498; [2],63.5 µM
same,GI50,RXF-393; Homo sapiens,5.48 µM
same,CC50,RXF-393; [2],46.5 µM
same,TGI,RXF-393,18.9 µM
same,TGI,SN12C,>100 µM
same,GI50,SN12C; Homo sapiens,7.16 µM
same,CC50,SN12C; [2],> 100 µM
same,GI50,UO-31; Homo sapiens,4.16 µM
same,CC50,UO-31; [2],> 100 µM
same,TGI,UO-31,38.1 µM
same,GI50,PC-3; Homo sapiens,6.36 µM
same,CC50,PC-3; [2],> 100 µM
same,TGI,PC-3,>100 µM
same,GI50,MCF7; Homo sapiens,0.68 µM
same,CC50,MCF7; [2],82.7 µM
same,TGI,MCF7,19.9 µM
same,GI50,[1]; Homo sapiens,1.63 µM
same,CC50,[1]; [2],> 100 µM
same,TGI,[1],7.82 µM
same,TGI,T-47D,14.7 µM
same,GI50,"T-47D; Homo sapiens, T47D",2.92 µM
same,CC50,"T-47D; Homo sapiens, T47D, read-out: LC50 (the source's name)",70.5 µM
